From patent publication US9714213B2, “4-aminomethylbenzoic acid derivative” (TOA EIYO LTD., priority 2013, dated 2017) come the findings set out here.

The subject of one assay is rat ventral aorta. As to the kind of experiment: Blood vessel relaxation activity, phenylephrine-contracted rat ventral aorta ring specimen. The following applies: relaxation of 1 μmol/L phenylephrine contraction; EC50 without ODQ / EC50 with 10 μmol/L ODQ. The protocol:
A representative compound of the present invention was assayed for blood vessel relaxation activity according to the Test Example described below. In the assay, a rat (male, SD) was phlebotomized from the upper part of the heart under pentobarbital (30 mg/kg) anesthesia, and the ventral aorta was extracted. The connective tissue adhering around the blood vessel in the ventral aorta was removed in an ice-cooled Krebs-Henseleit solution (KH solution) (118 mmol/L sodium chloride, 4.7 mmol/L potassium chloride, 1.2 mmol/L magnesium sulfate, 1.2 mmol/L potassium dihydrogenphosphate, 25 mmol/L sodium hydrogen carbonate, 2.5 mmol/L calcium chloride and 10 mmol/L glucose, pH 7.4). Then, a ring specimen of 2 mm length was prepared, and fixed in 5 mL organ bath filled with the KH solution. The KH solution was maintained at 37° C., and a mixed gas of 95% O2 and 5% CO2 was ventilated. The specimen was stabilized with 1 g of the resting tension for 1 hour. In the meantime, the KH solution was exchanged twice. The tension of the specimen was recorded with a multichannel recorder through a pickup and an amplifier. After stabilization of the specimen, contraction was induced with 1 μmol/L phenylephrine (Phe), and cumulative administration of each compound (0.001, 0.01, 0.03, 0.1, 0.3, 1, 3, 10, 30, 100, 1000, 10000 nmol/L) was carried out. In the case of evaluation at the time of containing ODQ, 10 μmol/L ODQ was added 10 minutes before administration of Phe, and similar evaluation was performed.
EC50 value was calculated by Four-parameter Logistic Model with Assay Explorer (Accelrys, Inc.). Meanwhile, the solution of the test compound was prepared by dissolving the compound in DMSO to prepare solutions having the concentration of each test compound 1000 times higher than the final concentration.

The target in another assay is T1, human sGC (Homo sapiens, UniProt Q02153).
T1 construct: expressed in transfected cells; host or cells: CHO-K1 (Chinese hamster ovary) cells
T1 sequence (Q02153 1-619): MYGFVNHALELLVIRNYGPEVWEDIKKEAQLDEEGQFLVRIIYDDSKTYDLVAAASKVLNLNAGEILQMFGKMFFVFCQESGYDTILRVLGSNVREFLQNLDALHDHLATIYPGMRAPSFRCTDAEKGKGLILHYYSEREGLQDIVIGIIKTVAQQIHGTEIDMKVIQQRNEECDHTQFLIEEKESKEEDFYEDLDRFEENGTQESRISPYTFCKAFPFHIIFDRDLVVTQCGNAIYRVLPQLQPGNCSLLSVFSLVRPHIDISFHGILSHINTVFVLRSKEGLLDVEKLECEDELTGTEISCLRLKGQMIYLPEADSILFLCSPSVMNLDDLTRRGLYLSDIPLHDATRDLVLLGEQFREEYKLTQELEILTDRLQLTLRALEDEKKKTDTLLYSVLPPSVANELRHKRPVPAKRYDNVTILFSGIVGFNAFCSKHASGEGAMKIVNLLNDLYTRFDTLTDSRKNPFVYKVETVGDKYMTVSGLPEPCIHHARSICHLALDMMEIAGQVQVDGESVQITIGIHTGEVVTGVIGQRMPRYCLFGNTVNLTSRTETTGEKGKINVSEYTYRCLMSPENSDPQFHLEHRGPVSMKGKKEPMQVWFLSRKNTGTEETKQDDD
T1 sequence (Q02108 1-690 partner): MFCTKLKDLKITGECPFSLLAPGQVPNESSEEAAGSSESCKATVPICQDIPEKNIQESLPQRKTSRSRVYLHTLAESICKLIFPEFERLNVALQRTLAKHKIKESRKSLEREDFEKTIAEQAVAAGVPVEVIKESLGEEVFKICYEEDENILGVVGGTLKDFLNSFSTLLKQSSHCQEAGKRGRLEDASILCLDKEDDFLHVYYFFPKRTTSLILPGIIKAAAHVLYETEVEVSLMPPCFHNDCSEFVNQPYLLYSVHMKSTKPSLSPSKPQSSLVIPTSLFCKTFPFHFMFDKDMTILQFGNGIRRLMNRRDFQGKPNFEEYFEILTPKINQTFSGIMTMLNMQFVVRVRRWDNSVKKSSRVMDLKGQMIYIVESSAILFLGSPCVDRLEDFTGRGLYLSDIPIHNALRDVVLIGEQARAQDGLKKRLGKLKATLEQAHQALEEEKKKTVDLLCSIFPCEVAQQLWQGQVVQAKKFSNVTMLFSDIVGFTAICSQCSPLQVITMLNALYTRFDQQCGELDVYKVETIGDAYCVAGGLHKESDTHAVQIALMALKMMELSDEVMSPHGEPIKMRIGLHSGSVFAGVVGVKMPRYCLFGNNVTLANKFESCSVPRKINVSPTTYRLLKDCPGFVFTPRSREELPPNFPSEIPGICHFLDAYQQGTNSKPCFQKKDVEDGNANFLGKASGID
As to the kind of experiment: Maximum effect of sGC activation (intracellular Ca2+, Fura2-AM) in CHO-K1 cells stably expressing human sGC and mouse CNGA2. The following applies: increase rate of sGC activity vs DMSO control, test compound 10 μmol/L. Format: cell-based. The method, then: For the assay, chinese hamster ovary cells (CHO-K1 cells) stably expressing both α and β subunits of human sGC and mouse cyclic nucleotide-gated channel (CNGA2) were used.
The CHO-K1 cells stably expressing human sGC and mouse CNGA2 was cultured at 37° C. on F-12 medium containing 10% (v/v) fetal bovine serum (FBS), penicillin (100 U/mL), streptomycin (100 μg/mL), G418 (250 μg/mL) and Zeocin (250 μg/mL). The cells were suspended in a culture medium, seeded on a 96 well plate, and then cultured at 37° C. for 24 hours. The cells were washed with Assay buffer 1 (140 mmol/L sodium chloride, 5 mmol/L potassium chloride, 0.5 mmol/L magnesium chloride, 0.01 mmol/L calcium chloride, 10 mmol/L glucose, 0.4 mmol/L magnesium sulfate, 10 mmol/L 4-(2-hydroxyethyl)piperazin-1-ylethanesulfonic acid and 125 μmol/L sulfinpyrazone, pH 7.4), and then added a solution containing Fura2-AM, a fluorescent Ca^2+ indicator, in Assay buffer 1 at […] concentration thereto as an indicator solution, and cultured at 37° C. for 60 minutes. The culture medium was removed, and the cells were washed with Assay buffer 1, and then added a solution containing the test compound thereto, and cultured at room temperature for 10 minutes. A plate was placed onto a fluorometer (FlexStation II, Molecular Devices), and the intracellular calcium concentration was determined as the ratio of fluorescent intensity, obtained from measurement using 340 nm and 380 nm as excitation wavelength and 510 nm as detection wavelength.
The solution of the test compound was prepared by dissolving each test compound in DMSO at 10 mmol/L, and then diluting the solution for the test concentration at 10 μmol/L with Assay buffer (140 mmol/L sodium chloride, 5 mmol/L potassium chloride, 0.5 mmol/L magnesium chloride, 1 mmol/L calcium chloride, 10 mmol/L glucose, 0.4 mmol/L magnesium sulfate, 10 mmol/L 4-(2-hydroxyethyl)piperazin-1-ylethanesulfonic acid, […] sulfinpyrazone, 100 μmol/L isobutyl methyl xanthine, and 10 μmol/L 1H-[1,2,4]-oxadiazol[4,3-a]quinoxaline-1-one (hereinafter, ODQ), pH 7.4). The evaluation in the absence of ODQ was performed similarly, except that ODQ was not added to Assay buffer 2. As a control solution, a DMSO solution was used instead of the test compound solution.
The activity of the test compound defined as the increase rate of the sGC activity (%) at the time of adding the solution of the test compound with respect to the sGC activity at the time of adding the control solution, was calculated by dividing the fluorescent intensity ratio at the time of adding the test compound by the fluorescent intensity ratio of the control solution, and subtracting the sGC activity at the time of adding the control solution (100%).
If sGC is activated in this assay, intracellular cGMP concentration increases and accordingly intracellular Ca^2+ concentration is increased by opening of CNGA2. Accordingly, sGC activation can be measured as the change of Ca^2+ concentration in the cell. […] Accordingly, it is possible to evaluate maximum sGC activation effect including heme-dependent activation in the absence of ODQ, and also possible to evaluate heme independent sGC activation effect in the presence of ODQ.

Where two headings read alike, the source gives them in different places.

Usually Emax stands for the greatest response seen or fitted, relative to the assay's reference. With `O=C(O)CCCCN(Cc1ccc(C(=O)O)cc1)C[C@H](OCc1ccc(CCc2ccccc2)cc1F)c1ccccc1` [Example 45, (−)-4-{[N-(4-Carboxybutyl)-N-[(2R)-2-[2-fluoro-4-(2-phenylethyl)benzyloxy]-2-phenylethyl]amino]methyl}benzoic acid], the “EC50 Ratio (ODQ−/ODQ+)” value in the assay with rat ventral aorta is on record as 4.26. Further, the Emax at 10 µM turned out to be 123% at human sGC (10 μmol/L ODQ present, read-out: Emax (%) ODQ+ (Heme-independent)) and 109% on human sGC (absence of ODQ, read-out: Emax (%) ODQ− (Heme-dependent)).
